Tests used:
Assay type in all cases: cell-based, bovine
[1] = tested on: active beta-catenin (ABC); experiment: Western blot of active beta-catenin (ABC) expression in corneal endothelial cells
Experimental: With reference to FIG. 5, FIG. 5 was the Western blot analysis showing the expression level of active beta-catenin (ABC) in corneal endothelial cells treated with different concentrations of Marimastat or ADAM10 (ADAM metallopeptidase domain 10) specific inhibitor GI254023X. In group 1-3, the corneal endothelial cells were incubated in the SHEM added with 100 nM, 1 uM or 10 uM of GI254023X, respectively. In group 4-6, cells were incubated in the SHEM added with 100 nM, 1 uM or 10 uM of Marimastat, respectively. In group 1-3, there was no reduction in the expression level of ABC in the presence of ADAM10 specific inhibitor, GI254023X. In group 4, ABC expression level was high despite 100 nM of Marimastat.

[2] = tested on: corneal endothelial cells; experiment: Growth / proliferation of ex vivo cultured corneal endothelial cells
Source text: Y-27632 is a known growth stimulator for corneal endothelial cells that is able to increase the ex vivo cell proliferation.

[3] = tested on: corneal endothelial cells; experiment: Phenotype (cell shape) of ex vivo cultured corneal endothelial cells, immunofluorescence staining against active beta-catenin

CNC(=O)[C@@H](NC(=O)[C@H](CC(C)C)[C@H](O)C(=O)NO)C(C)(C)C [Marimastat]
expression level of active beta-catenin (ABC) ([1]; group 4: 100 nM in SHEM): high
expression level of active beta-catenin (ABC) ([1]; more than 1 uM in SHEM (groups 5-6: 1 uM, 10 uM)): significantly reduced
cell growth of corneal endothelial cells ([2]; groups 2, 4 and 6: 10 uM MMPI added in the SHEM): not obviously inhibited or reduced
cell morphology of cultured corneal endothelial cells ([3]; group 2 or 4: SHEM with 10 uM MMPI (without or with 10 uM Y-27632) for 9 days): maintained hexagonal morphology

C[C@@H](N)[C@H]1CC[C@H](C(=O)Nc2ccncc2)CC1 [Y-27632]
proliferation of corneal endothelial cells ([2]; group 3 or 5: SHEM with 10 uM Y-27632): enhanced proliferation
cell shape of cultured corneal endothelial cells ([3]; group 3 or 5: SHEM with 10 uM Y-27632 (9 days, or first 3 days only)): elongated and fibroblast-like

CNC(=O)[C@@H](NC(=O)[C@H](CCCc1ccccc1)[C@H](C)N(O)C=O)C(C)(C)C [GI254023X]
expression level of active beta-catenin (ABC) ([1]; group 1-3: 100 nM, 1 uM or 10 uM in SHEM): no reduction

From patent US20160002596A1, “COMPOSITION FOR EX VIVO CULTURING OF A CORNEAL ENDOTHELIAL CELL AND A METHOD FOR USING THE COMPOSITION” (National Taiwan University, priority 2014, published 2016)
